Here are results for 6 compounds from PubChem BioAssay (NCI).

Some test systems named below: A498 renal; A549 NSCLC; CAKI-1 renal; COLO 205 colon; HS 578T breast; MCF7 breast; SF-268 CNS; SNB-19 CNS; UACC-257 melanoma; UACC-62 melanoma.
Holding throughout (assay): growth of human tumour cells (NCI), 48 h

Molecules are shown by their SMILES.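 Tested at 5 concentrations; 48 h exposure; 96-well plates; endpoints linearly interpolated, else capped at highest concentration. Here, GI50 denotes the concentration required for 50% inhibition of growth. TGI marks complete inhibition of growth.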 Bounds are passed on as bounds.

As for `Nc1c(C(=O)Nc2cccc3ccccc23)sc2nc3c(cc12)CCCC3`, the GI50 in the assay on A498 renal was 0.366 µM; in the assay with A549 NSCLC, 3.33 µM; in the assay with CAKI-1 renal, 5.9 µM; in the assay on COLO 205 colon it was 2.45 µM; in the assay on HS 578T breast, 0.852 µM; in the assay on MCF7 breast, 0.0577 µM. In addition, the GI50 in the assay with SF-268 CNS was 3.74 µM; in the assay with SNB-19 CNS, 4.12 µM; in the assay on UACC-257 melanoma, 40.5 µM; in the assay on UACC-62 melanoma it was 0.716 µM. The TGI with A498 renal is 7.78 µM; with A549 NSCLC it was > 100 µM; in the assay with CAKI-1 renal, > 100 µM; in the assay with COLO 205 colon, 9.53 µM; in the assay with HS 578T breast it was > 100 µM; in the assay with MCF7 breast, > 100 µM. Also, the TGI with SF-268 CNS, in the assay with SNB-19 CNS, in the assay on UACC-257 melanoma and in the assay on UACC-62 melanoma was > 100 µM in each case.
For `CCOC(=O)Nc1nc2c(F)c(F)c(F)cc2s1`, the GI50 in the assay with A498 renal was 31.8 µM; with A549 NSCLC, > 100 µM; with CAKI-1 renal, > 100 µM; in the assay with COLO 205 colon, > 100 µM; in the assay on HS 578T breast it was 27.4 µM; with MCF7 breast, > 100 µM. In addition, the GI50 in the assay with SF-268 CNS is 43.8 µM; in the assay with SNB-19 CNS, > 100 µM; with UACC-257 melanoma it was > 100 µM; with UACC-62 melanoma, 19.7 µM. The TGI with A498 renal, with A549 NSCLC, with CAKI-1 renal, with COLO 205 colon, in the assay with HS 578T breast and in the assay on MCF7 breast was > 100 µM throughout. The TGI with SF-268 CNS, with SNB-19 CNS, with UACC-257 melanoma and in the assay with UACC-62 melanoma was > 100 µM each time.
Regarding `COC(=O)c1[nH]nc(-c2ccccc2)c1N1CCCCC1`, the GI50 with A498 renal is 17.4 µM; in the assay with A549 NSCLC it was 43.6 µM; in the assay on CAKI-1 renal it was 62.4 µM; with COLO 205 colon, > 100 µM; in the assay on HS 578T breast, 22.4 µM; in the assay on MCF7 breast it was 29.5 µM. The GI50 was 20.8 µM in the assay with SF-268 CNS, 36.2 µM in the assay on SNB-19 CNS, 39.7 µM with UACC-257 melanoma and 17.3 µM in the assay on UACC-62 melanoma. Moreover, the TGI is 57.2 µM in the assay with A498 renal; > 100 µM in the assay with A549 NSCLC; 87.8 µM in the assay with CAKI-1 renal; > 100 µM in the assay with COLO 205 colon; 64.7 µM in the assay with HS 578T breast; > 100 µM in the assay on MCF7 breast. Besides, the TGI in the assay on SF-268 CNS is 53.5 µM; with SNB-19 CNS, > 100 µM; in the assay on UACC-257 melanoma, > 100 µM; with UACC-62 melanoma, 49.2 µM.
For the compound `Cn1c2ccccc2c2cc(-c3ccccc3)c3c(c21)C(=O)C=CC3=O`, the TGI in the assay with A498 renal was 48.7 µM; in the assay with A549 NSCLC, > 100 µM; in the assay with CAKI-1 renal it was 39.3 µM; in the assay with COLO 205 colon, 35.1 µM; in the assay with HS 578T breast, 61.7 µM; in the assay with MCF7 breast, 24.7 µM. For the same compound, the TGI is 77.4 µM in the assay with SF-268 CNS, > 100 µM in the assay with SNB-19 CNS, 50.9 µM in the assay with UACC-257 melanoma and 44.7 µM in the assay with UACC-62 melanoma.
`COc1cc(C2c3cc4c(cc3C3OC(=O)C2C3CO)OCO4)cc(OC)c1OC` (stereo not drawn): the GI50 in the assay on A498 renal was < 0.01 µM; with A549 NSCLC it was 0.0294 µM; in the assay with CAKI-1 renal, 0.0511 µM; in the assay on COLO 205 colon, 0.0188 µM; in the assay with HS 578T breast, 0.043 µM; with MCF7 breast, < 0.01 µM. For the same compound, the values for the GI50 in the assay with SF-268 CNS and in the assay with UACC-62 melanoma were 0.0395 µM and < 0.0136 µM, respectively. Moreover, the TGI with A498 renal is 0.0605 µM; in the assay with A549 NSCLC, > 100 µM; in the assay on CAKI-1 renal, > 100 µM; in the assay on COLO 205 colon it was 0.0372 µM; in the assay on HS 578T breast, > 100 µM; in the assay on MCF7 breast it was > 100 µM. Also, the TGI in the assay on SF-268 CNS, in the assay on SNB-19 CNS, with UACC-257 melanoma and in the assay on UACC-62 melanoma was > 100 µM each time.
In the case of `NC1=CC(=O)C(=O)c2cccnc21`, the GI50 with A498 renal was 10.2 µM; in the assay with A549 NSCLC, 3.55 µM; in the assay on CAKI-1 renal it was 8.45 µM; in the assay with COLO 205 colon it was 16.6 µM; with HS 578T breast, 5.16 µM; with MCF7 breast, 3.74 µM. Moreover, the GI50 was 4.81 µM in the assay with SF-268 CNS, 5.86 µM with SNB-19 CNS, 2.23 µM in the assay on UACC-257 melanoma and 1.83 µM in the assay with UACC-62 melanoma. The TGI was determined as 22.7 µM in the assay on A498 renal; 15.5 µM in the assay on A549 NSCLC; 31.2 µM in the assay on CAKI-1 renal; 30.1 µM in the assay with COLO 205 colon; 55.1 µM in the assay with HS 578T breast; 16.8 µM in the assay on MCF7 breast. The TGI came out at 18 µM with SF-268 CNS, 21.6 µM with SNB-19 CNS, 6.7 µM with UACC-257 melanoma and 3.79 µM in the assay with UACC-62 melanoma.
